In patent US20030130698A1, “Method for screening therapeutic agents for modulation of ejaculatory response” (priority 2002, published 2003):

What was measured:
male mice [1] = experiment: Electroejaculation test after oral administration of diarylmethylpiperazine compounds (35 Hz, 3 to 8 volts); assay type: in vivo, mouse; details: for Effective Dose: oral administration, stimulation about 20 minutes after dosing, 3 to 8 volts in 0.5 volt increments; for Ejaculation Inhibition %: relative to control group, at the effective dose of the same line, oral, about 20 minutes after dosing, 3 to 8 volts
Protocol: (§1) Male, CD-1 mice (20-30 g) were housed in groups of ten (10) in Plexiglas® chambers with food and water available before any procedure. Animals were maintained on a 12 hour light/dark cycle in a temperature-controlled animal colony. Studies were carried out in accordance with the Guide for the Care and Use of Laboratory animals as adopted and promulgated by the National Institutes of Health.
(§2) Specifically, the bipolar electrode probe is an approximately 5 cm long tube having an outer diameter of approximately 0.2388 cm with an inner diameter of approximately 0.0787 cm and a wall thickness of […].
A testing mouse was restrained in a cone bag with rear legs extending from the bag. Excess fecal matter was removed from the rectum and a lubricated bipolar electrode was inserted approximately […] into the rectum. An oscillating current of 40 Hz was utilized for electrical stimulation starting at 3 volts with a gradual increase to 8 volts by increments of 0.5 volts, as shown in Table 1. The stimulation regime included 4 stimulating events for each voltage lasting 2 seconds with a rest period of 2 seconds between stimulating events. A white coagulum ejaculate from the penis indicated a successful ejaculation. If ejaculation occurred before reaching the 8 volt terminal voltage, the testing was stopped.
Further testing was conducted on a multiple diarylmethylpiperazine compounds according to the testing procedure setforth above wherein the stimulating protocol comprised multiple operating cycles of alternating stimulation periods and rest periods during which the operating voltage of each operating cycle increased in comparison with that of the immediately preceding operating cycle. Electroejaculation stimulation was conducted at 35 Hz oscillating frequency, starting at 3 volts with a gradual increase to 8 volts by increments of 0.5 volts and occurred about 20 minutes after oral administration. The results, showing ejaculation inhibition relative to that of the control group, are compiled in Table 2.

male mice [2] = experiment: Electroejaculation test after subcutaneous SNC-80 (40 Hz, 3 to 8 volts); assay type: in vivo, mouse; details: terminal voltage 8 volts, FIG. 3
Protocol: as §1, §2
SNC-80 was dissolved in 5% dextrose injection solution. Equal molar of HCL was added when the manufacturer packaged the compound in a base form. The placebo was prepared in a similar manner without the test drug 10 minutes after the injection, the test mouse was subjected to electrostimulation. Ten mice were tested for each dose level, the order of each mouse receiving different doses was blinded and in a random manner.
A testing mouse was restrained in a cone bag with rear legs extending from the bag. Excess fecal matter was removed from the rectum and a lubricated bipolar electrode was inserted approximately 2.5 into the rectum. […]

delta opioid receptor = delta opioid receptor (Homo sapiens, UniProt P41143); details: delta opioid receptor agonist versus mu opioid receptors; cited from earlier work
[3] = system: mouse vas deferens smooth muscle; details: in vitro; cited from earlier work

Chain of delta opioid receptor (P41143 whole entry): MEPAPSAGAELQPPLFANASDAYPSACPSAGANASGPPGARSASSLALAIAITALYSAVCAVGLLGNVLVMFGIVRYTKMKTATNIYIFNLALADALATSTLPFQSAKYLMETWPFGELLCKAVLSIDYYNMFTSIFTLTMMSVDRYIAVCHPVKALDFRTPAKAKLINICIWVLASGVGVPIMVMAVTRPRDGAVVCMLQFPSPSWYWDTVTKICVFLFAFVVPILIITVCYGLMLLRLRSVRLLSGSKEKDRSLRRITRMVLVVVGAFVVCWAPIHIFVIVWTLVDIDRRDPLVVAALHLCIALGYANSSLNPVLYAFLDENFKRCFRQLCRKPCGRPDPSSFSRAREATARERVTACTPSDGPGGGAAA

| Compound | Effective Dose (male mice [1]) [mg/kg] | Ejaculation Inhibition % (male mice [1]) [%] | inhibitory effect on ejaculation at reduced dose (male mice [2]; 0.1 mg/kg subcutaneous) | occurrence of ejaculation compared to control group (male mice [2]; 1 mg/kg subcutaneous) | selectivity over mu opioid receptors (delta opioid receptor) [fold] | contraction of mouse vas deferens smooth muscle [3] |
| --- | --- | --- | --- | --- | --- | --- |
| CCN(CC)C(=O)c1ccc([C@H](c2ccccc2)N2C[C@@H](C)N(Cc3ccc(O)cc3)C[C@@H]2C)cc1 [4-((alpha-S)-alpha-((2S,5R)-2,5-Dimethyl-4-(4-hydroxybenzyl)-1-piperazinyl)-benzyl)-N,N-diethylbenzamide] | 3 | 50 |  |  |  |  |
| CCN(CC)C(=O)c1ccc([C@H](c2cccc(O)c2)N2C[C@@H](C)N(CC3CC3)C[C@@H]2C)cc1 [4-(alpha-R)-alpha-((2S,5R)-4-(Cyclopropylmethyl)-2,5-dimethyl-1-piperazinyl)-3-hydroxybenzyl)-N,N-diethylbenzamide] | 0.3 | 60 |  |  |  |  |
| CCN(CC)C(=O)c1ccc([C@H](c2cccc(O)c2)N2C[C@@H](C)N(Cc3cccc(F)c3)C[C@@H]2C)cc1 [4-((alpha-R)-alpha-((2S,5R)-2,5-Dimethyl-4-(3-fluorobenzyl)-1-piperazinyl)-3-hydroxybenzyl)-N,N-diethylbenzamide] | 3 | 60 |  |  |  |  |
| CCN(CC)C(=O)c1ccc([C@H](c2cccc(OC)c2)N2C[C@@H](C)N(Cc3ccccc3)C[C@@H]2C)cc1 [4-(alpha-R)-alpha-((2S,5R)-4-Benzyl-2,5-dimethyl-1 piperazinyl)-3-methoxybenzyl)-N,N-diethylbenzamide] | 3 | 33 |  |  |  |  |
| C=CCN1C[C@H](C)N([C@H](c2ccc(C(=O)N(CC)CC)cc2)c2cccc(OCC(=O)O)c2)C[C@H]1C [3-((alpha-R)-alpha-((2S,5R)-4-Allyl-2,5-dimethyl-1-piperazinyl)-4-(diethylamino-carbonyl)benzyl)phenoxyacetic acid] | 0.01 | 45 |  |  |  |  |
| C=CCN1C[C@@H](C)N([C@H](c2ccc(S(=O)(=O)N(C)C)cc2)c2cccc(O)c2)C[C@@H]1C [4-[(R)-((2R,5S)-4-Allyl-2,5-diimethylpiperazin-1-yl)(3-hydroxyphenyl)methyl]-N,N-dimethylbenzenesulfonamide] | 0.3 | 50 |  |  |  |  |
| CCN(CC)C(=O)c1ccc([C@H](c2cccc(OCC(=O)O)c2)N2C[C@@H](C)N(Cc3ccccc3)C[C@@H]2C)cc1 [3-((alpha-R)-alpha-((2S,5R)-4-Benzyl-2,5-dimethyl-1-piperazinyl)-4-(diethylaminocarbonyl)benzyl)phenoxyacetic acid] | 3 | 66 |  |  |  |  |
| CCN(CC)C(=O)c1ccc([C@H](c2cccc(OC)c2)N2C[C@@H](C)N(Cc3ccccc3F)C[C@@H]2C)cc1 [4-((alpha-R)-alpha-((2S,5R)-2,5-Dimethyl-4-(2-fluorobenzyl)-1-piperazinyl)-3-methoxybenzyl)-N,N-diethylbenzamide] | 10 | 50 |  |  |  |  |
| CCN(CC)C(=O)c1ccc([C@@H](c2ccccc2)N2C[C@H](C)N(Cc3cccc(F)c3)C[C@H]2C)cc1 [4-((alpha-R)-alpha-((2R,5 S)-2,5-Dimethyl-4-(3-fluorobenzyl)-1-piperazinyl)benzyl)-N,N-diethylbenzamide] | 0.4 | 75 |  |  |  |  |
| C=CCN1C[C@H](C)N([C@H](c2ccc(C(=O)N(CC)CC)cc2)c2cccc(OC)c2)C[C@H]1C [SNC-80, (+)-4-[(αR)-α-((2S,5R)-4-Allyl-2,5-dimethyl-1-piperazinyl)-3-methoxybenzyl]-N,N-diethyl benzamide] |  |  | inhibitory effect diminished | significantly reduced the occurrence of ejaculation | 2000 | block the contraction |
| CCN(CC)C(=O)c1ccc([C@H](c2cccc(OC)c2)N2C[C@@H](C)N(Cc3ccc(F)cc3)C[C@@H]2C)cc1 [4-((alpha-R)-alpha-((2S,5R)-2,5-Dimethyl-4-(4-fluorobenzyl)-1-piperazinyl)-3-methoxybenzyl)-N,N-diethylbenzamide] | 3 | 38 |  |  |  |  |
